“And” between values parts separate entries of the source, which are not always exact repeats. Equal values may be shown once.

The values below come from patent US20240209353A1, “NADK2 INHIBITION IN CANCER AND FIBROTIC DISORDERS” (Memorial Sloan-Kettering Cancer Center, priority 2021, published 2024).

The assay concerns immunopurified mitochondria of DLD1-OMP25HA cells. Description: LC-MS metabolomic profiling, Mito-IP samples. It counts as cell-based, human. The protocol: Rapid immunopurification of mitochondria was performed following the published methodology (4). In brief, cells with control or NADK2 knockout were engineered to express the HA-tagged OMP25 protein (Addgene, 83356); or in the case of FIG. 5E, parental DLD1 cells were engineered to express the HA-tagged OMP25 protein or the Myc-tagged OMP25 protein (Addgene, 83355), 30 million cells were washed and dounce homogenized in KPBS (136 mM KCl and 10 mM KH2PO4, pH 7.25). The homogenate was then cleared by centrifugation and the supernatant was applied to anti-HA beads (Thermo Fisher, 88837) and incubated with rotation for 3.5 min. The resultant beads were washed with KPBS and were eluted for different downstream analyses: Triton X-100 lysis buffer (50 mM Tris-HCl, pH 7.4, 150 mM NaCl, 1 mM EDTA, 1% (vol/vol) Triton X-100, and protease inhibitors) was used to elute mitochondria for Western blot analysis; 80:20 methanol:water containing 1.5 μM ^13C^15N labeled amino acids (Cambridge Isotope Laboratories, MSK-A2-1.2) was used to elute mitochondria for liquid chromatography-mass spectrometry (LC-MS) analysis; 80:20 methanol:water was used to elute mitochondria for NAD(H) and NADP(H) measurements; glutathione lysis buffer (see below) was used to elute mitochondria for GSH measurements.
For negative ionization mode liquid chromatography separation was achieved on an iHILIC-(P) Classic column (100 mm×2.1 mm, 5 μm particle size, HILICON). Mobile phase A was 10 mM ammonium bicarbonate in 10:90 acetonitrile:water with 5 μM medronic acid, pH 9.4 and mobile phase B was 10 mM ammonium bicarbonate in 90:10 acetonitrile:water with 5 μM medronic acid, pH 9.4). The gradient was 0 min, 95% B; 15 min, 50% B; 18 min, 50% B; 19 min, 95% B; 19.10 min, 95% B; 25.5 min, 95% B; 2 mins posttime. Other LC parameters were: flow rate: 200 μL/min; column temperature: 40° C., and injection volume was 2 μL. MS parameters were: gas temp: 300° C.; gas flow: 10 L/min; nebulizer pressure: 40 psig; sheath gas temp: 350° C.; sheath gas flow: 12 L/min; VCap: 3,000 V; fragmentor: 125 V. Data were acquired from m/z 50-1700 with active reference masses correction (m/z: 121.05087 and 922.00980 (positive mode) or m/z: 119.03632 and 980.01638 (negative mode). Peak identification and integration were done based on in-house exact mass and retention time library built from commercial standards. Data analysis and natural isotope abundance correction were performed using MassHunter Profinder software v10.0 (Agilent Technologies).
For metabolomic profiling of the Mito-IP samples, dried extracts were resuspended in 30 μL of 60:40 acetonitrile:water and an additional 7.5 μL of 100% methanol added to prevent phase separation. Samples were vortexed, incubated on ice for 20 min, and clarified by centrifugation at 20,000 g for 20 min at 4° C. LC-MS analysis was using the iHILIC-(P) Classic negative method described with 6545 Q-TOF mass spectrometer (Agilent Technologies). Whole cell extracts were analyzed in parallel and data analysis was performed using MassHunter Profinder v10.0 software (Agilent Technologies). Metabolite identifications reported were based on either (a) exact mass and retention times matched to authentic standards (denoted as RT in Tables 1A-1G) or (b) exact mass and MS2 spectra match using SIRIUS software (denoted as MS2 in Tables 1A-1G) (https://bio.informatik.uni-jena.de/software/sirius/). Metabolites were considered to be mitochondrial if the average peak area measured in anti-HA Mito-IPs from HA-tagged OMP25 cells was at least 1.5-fold more than in anti-HA Mito-IPs from the control cell expressing Myc-tagged OMP25 (scc Tables 1A-1G; FC>1.5 for [OMP25HA sgCtrl MitoIP vs. OMP25Myc MitoIP]).

Where [1] appears, read: DLD1-OMP25HA sgCtrl + Piericidin MitoIP, 5 μM 2 hours, rep01-rep03.

Take `C/C=C(\C)[C@H](O)[C@H](C)/C=C(C)/C=C/C/C(C)=C/Cc1nc(OC)c(OC)c(O)c1C` [piericidin]: under setting [1], the 2-aminoadipate level is 62966 and 65899 and 79200; the 3-hydroxy-3-methylglutarate level is 65452 and 77263 and 90857; the 3-hydroxyhexadecanoate level is 154313 and 165893 and 273073; the alpha-ketoglutarate level was 36956 and 33481 and 64213. Moreover, under setting [1], the carbamoyl aspartate level is 61946 and 44834 and 50496; the citrate level was 2652773 and 2956510 and 3197992; the dodecanoate level was 117632035 and 108567664 and 182339246; the galactonic acid level was 79663 and 109571 and 76436. Also, under setting [1], the glutamine level is 58654 and 57894 and 67465; the “glutathione, reduced (GSH) level” value is 5666886 and 8127441 and 4704089; the lactate level was 2355878 and 2582709 and 1383509; the malate level is 78861 and 87997 and 101969. For the same compound, under setting [1], the methylmalonate level is 49637 and 60988 and 87945; the “methylthioribulose 1-phosphate level” value is 78919 and 79663 and 140471; the “nicotinamide adenine dinucleotide, reduced (NADH) level” value is 3526961 and 3705811 and 4542289; the oleate level was 3976796 and 4283346 and 4070066. Moreover, under setting [1], the palmitate level was 58619197 and 59278003 and 34887756; the pentadecanoic acid level was 988055 and 823203 and 616849; the phenylacetate level is 206078 and 155618 and 258772; the phosphoglycolic acid level is 12625 and 17645 and 24712. Further, under setting [1], the succinate level is 32755 and 39006 and 43999; the taurine level is 3028424 and 3328577 and 3010797; the “uridine 5′-monophosphate (UMP) level” value is 149496 and 116561 and 209899. Further, the “glutamate and NADH levels in the mitochondria” value (sgCtrl DLD1-OMP25HA cells, 5 μM piericidin for 2 hours before Mito-IP) was “increased”.
